Results from the NIST ThermoML archive (doi:10.1021/je500358r).
Numbers after ± are expanded uncertainties.

Legend:
[1] = for vapor or sublimation pressure: Liquid, Gas chromatography
[2] = molar enthalpy of vaporization or sublimation; settings: 298 K; Liquid; DSC
[3] = Molar enthalpy of transition or fusion; settings: DSC

Structure (SMILES) | vapor or sublimation pressure ([1]; 283.15 K) [kPa] | vapor or sublimation pressure ([1]; 288.15 K) [kPa] | vapor or sublimation pressure ([1]; 293.15 K) [kPa] | vapor or sublimation pressure ([1]; 298.15 K) [kPa] | vapor or sublimation pressure ([1]; 303.15 K) [kPa] | vapor or sublimation pressure ([1]; 308.15 K) [kPa] | vapor or sublimation pressure ([1]; 313.15 K) [kPa] | molar enthalpy [2] [kcal/mol] | Normal melting temperature ([1]; Crystal 1, DTA) [°C] | Triple point temperature ([1]; Crystal 2, DTA) [K] | Molar enthalpy of transition or fusion ([3]; Crystal 1) [kcal/mol] | Molar enthalpy of transition or fusion ([3]; Crystal 2) [kcal/mol]
CCCCCCCCCCCCCCCCN(C)C [1-hexadecanamine, N,N-dimethyl-] | 2e-06 ± 1e-06 | 3e-06 ± 1e-06 | 6e-06 ± 1e-06 | 1.1e-05 ± 1e-06 | 1.9e-05 ± 2e-06 | 3.2e-05 ± 3e-06 | 5.5e-05 ± 6e-06 | 20.3 ± 2.87 |  |  |  | 
CCCCCCCCCCCCCCN(C)C [1-tetradecanamine, N,N-dimethyl-] | 1.7e-05 ± 2e-06 | 3.1e-05 ± 3e-06 | 5.4e-05 ± 5e-06 | 9.2e-05 ± 9e-06 | 0.000153 ± 1.5e-05 | 0.000253 ± 2.5e-05 | 0.00041 ± 4.1e-05 | 18.5 ± 1 |  |  |  | 
C#CCN(C)[C@H](C)Cc1ccccc1 [(R)-N-methyl-N-(1-phenylpropan-2-yl)prop-2-yn-1-amine] | 0.0006 ± 0.0001 | 0.001 ± 0.0001 | 0.0016 ± 0.0002 | 0.0025 ± 0.0003 | 0.0038 ± 0.0004 | 0.0058 ± 0.0006 | 0.0086 ± 0.0009 | 15.4 ± 1.12 |  |  |  | 
C[C@@H](Cc1ccccc1)N(C)Cc1ccccc1 [(S)-N-benzyl-N-methyl-1-phenylpropan-2-amine] | 8e-06 ± 1e-06 | 1.4e-05 ± 2e-06 | 2.4e-05 ± 2e-06 | 4e-05 ± 4e-06 | 6.7e-05 ± 7e-06 | 0.000111 ± 1.1e-05 | 0.000179 ± 1.8e-05 | 18.5 ± 0.55 |  |  |  | 
CCN(CCCc1ccccc1)CCCc1ccccc1 [N-ethyl-3-phenyl-N-(3-phenylpropyl)propan-1-amine] | 2e-07 ± 1e-07 | 4e-07 ± 1e-07 | 7e-07 ± 1e-07 | 1.4e-06 ± 2e-07 | 2.5e-06 ± 3e-07 | 4.5e-06 ± 5e-07 | 7.8e-06 ± 8e-07 | 21.3 ± 0.669 |  |  |  | 
c1ccc(CN(Cc2ccccc2)Cc2ccccc2)cc1 [benzenemethanamine, N,N-bis(phenylmethyl)-] | 7e-08 ± 2e-08 | 1.4e-07 ± 2e-08 | 2.7e-07 ± 4e-08 | 5e-07 ± 6e-08 | 9.3e-07 ± 1e-07 | 1.7e-06 ± 1.8e-07 | 3.03e-06 ± 3.1e-07 | 22.1 ± 0.837 | 92.5 ± 0.4 | 342.5 ± 0.9 | 5.5 ± 0.127 | 0.264 ± 0.0502
CCCCN(CCCC)CCCC [tributylamine] | 0.008 ± 0.001 | 0.013 ± 0.001 | 0.019 ± 0.002 | 0.028 ± 0.003 | 0.042 ± 0.004 | 0.06 ± 0.006 | 0.087 ± 0.009 | 13.9 ± 0.98 |  |  |  | 
CC(C)CN(CC(C)C)CC(C)C [triisobutylamine] | 0.037 ± 0.004 | 0.055 ± 0.006 | 0.079 ± 0.008 | 0.113 ± 0.011 | 0.159 ± 0.016 | 0.222 ± 0.022 | 0.306 ± 0.031 | 12.5 ± 1.1 |  |  |  | 
CCCCCCCCN(CCCCCCCC)CCCCCCCC [trioctylamine] | 2e-08 ± 1e-08 | 3e-08 ± 1e-08 | 7e-08 ± 2e-08 | 1.4e-07 ± 2e-08 | 2.8e-07 ± 4e-08 | 5.3e-07 ± 6e-08 | 1e-06 ± 1.1e-07 | 23.9 ± 0.837 |  |  |  | 
CCCN(CCC)CCC [tripropylamine] | 0.199 ± 0.02 | 0.278 ± 0.028 | 0.384 ± 0.038 | 0.524 ± 0.052 | 0.709 ± 0.071 | 0.949 ± 0.095 | 1.259 ± 0.13 |  |  |  |  | 
